Results published in US20200354327A1, “COMPOUND HAVING STAT3 INHIBITORY ACTIVITY AND USE THEREOF” (CYTUS H&B CO., LTD., priority 2017, published 2020).

Key:
STAT92E = experiment: Drosophila cell luciferase assay (10XSTAT92E-luciferase reporter); format: cell-based; details: activated by the ligand upd or Hop
Description: Drosophila cells (S2-NP, 24×3) used in the experiment were cultured as previously described (Kim B H, et al. Mol Cancer Ther. 7, 2672-2680 (2008)). S2-NP (Drosophila Schneider cell) cells were Drosophila-derived macrophage-like cells and were cultured in Schneider's medium. 24×3 cells were cell lines stably expressed by inserting 10XSTAT92E-luciferase and PolIII-Renilla luciferase-labeled plasmid DNA as reporter constructs into S2-NP cells and were cultured in a medium prepared by adding […] of geneticin to the same medium as that for S2-NP. S2-NP cells in which unpaired (upd) or HOPT^Tum-l as a ligand was expressed and 24×3 cells constructed with reporter constructs were mixed at a constant ratio and cultured for 24 hours in the presence of a compound, the expression level of STAT92E was measured using a luminometer, and the inhibition effect was compared with that of the DMSO-treated group.

SOCS3 = experiment: Western blot of SOCS3 expression in L540 cells; format: cell-based, human
Description: (§1) The human cancer cell lines used in the experiment were U87-MG (human malignant glioblastoma) and MDA-MB-231 (human malignant breast cancer) cell lines, and various kinds of human-derived blood and solid cancer cells including these human cancer cell lines were cultured as previously described (Jung J E, et al. FASEB J. 19, 1296-1298 (2005)). The human Hodgkin lymphoma cancer cell lines L540 and HLDM-2 used in the experiment were obtained from the German Collection of Microorganism and Cell Cultures (DSMZ, Germany) and cultured using RPMI 1640 medium containing 20% FBS in a 5% CO2 incubator at a temperature of 37° C.
(§2) Western blot analysis was performed (Jung J E, et al. FASEB J. 19, 1296-1298 (2005)). The cells were washed two times with PBS and suspended in the lysate (50 mM Tris-HCl, pH 7.4, 350 mM NaCl, 1% Triton X-100, 0.5% Nonidet P-40, 10% glycerol, 0.1% SDS, 1 mM EDTA, 1 mM EGTA, 1 mM Na3VO4, 1 mM PMSF, protease and phosphorylation inhibitor) and the cell membrane and nuclear membrane were crushed to lyse the cells. The insoluble protein fraction was removed by centrifugation, and the supernatant was mixed with SDS electrophoresis buffer and electrophoresis (SDS-PAGE) was performed to detect the protein with the desired antibody and to confirm the protein expression level.

JAK3 = target: T1, JAK3 (Homo sapiens, UniProt P52333); experiment: Western blot of upper signaling in L540 cells: JAK3; format: cell-based
T1 construct: endogenous in cells; host or cells: L540
T1 sequence (P52333 1-1124): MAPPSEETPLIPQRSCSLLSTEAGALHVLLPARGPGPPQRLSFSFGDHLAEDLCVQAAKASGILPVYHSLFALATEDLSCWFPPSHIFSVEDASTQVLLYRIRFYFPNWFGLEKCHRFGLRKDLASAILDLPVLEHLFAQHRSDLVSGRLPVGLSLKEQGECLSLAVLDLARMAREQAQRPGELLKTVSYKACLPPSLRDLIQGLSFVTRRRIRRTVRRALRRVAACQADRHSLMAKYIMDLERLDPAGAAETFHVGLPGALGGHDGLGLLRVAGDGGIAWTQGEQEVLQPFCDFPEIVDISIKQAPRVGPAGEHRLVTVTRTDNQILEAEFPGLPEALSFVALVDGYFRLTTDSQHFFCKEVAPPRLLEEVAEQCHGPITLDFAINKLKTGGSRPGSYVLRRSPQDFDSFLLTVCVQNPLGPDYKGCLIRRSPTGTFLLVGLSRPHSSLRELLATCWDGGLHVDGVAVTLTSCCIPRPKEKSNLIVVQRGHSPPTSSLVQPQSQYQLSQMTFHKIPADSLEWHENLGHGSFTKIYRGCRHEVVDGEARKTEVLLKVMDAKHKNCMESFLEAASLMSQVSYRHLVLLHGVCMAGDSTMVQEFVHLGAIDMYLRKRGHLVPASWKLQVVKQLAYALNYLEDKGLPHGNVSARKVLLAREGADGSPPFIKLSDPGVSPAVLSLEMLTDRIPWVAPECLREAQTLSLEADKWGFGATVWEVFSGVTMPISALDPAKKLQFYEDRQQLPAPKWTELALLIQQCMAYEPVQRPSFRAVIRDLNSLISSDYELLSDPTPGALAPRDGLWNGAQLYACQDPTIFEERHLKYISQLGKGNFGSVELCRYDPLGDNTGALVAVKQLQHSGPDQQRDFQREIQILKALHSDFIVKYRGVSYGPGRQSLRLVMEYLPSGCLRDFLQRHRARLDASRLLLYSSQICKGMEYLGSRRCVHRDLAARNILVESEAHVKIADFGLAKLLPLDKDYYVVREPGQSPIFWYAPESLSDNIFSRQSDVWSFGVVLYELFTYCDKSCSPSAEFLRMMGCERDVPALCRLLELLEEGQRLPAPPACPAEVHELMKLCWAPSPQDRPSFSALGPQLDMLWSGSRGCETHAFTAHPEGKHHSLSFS
Description: as §1, §2

Src family kinase Lyn = target: T2, Src family kinase Lyn (Homo sapiens, UniProt P07948); experiment: Western blot of signaling in L540 cells: Lyn; format: cell-based
T2 construct: endogenous in cells; host or cells: L540
Description: as §1, §2

ERK signaling process = experiment: Western blot of signaling in L540 cells: ERK; format: cell-based, human
Description: as §1, §2

STAT3 [1] = target: T3, STAT3 (Homo sapiens, UniProt P40763); experiment: Western blot in Hodgkin lymphoma cell line L540; format: cell-based; parameters: endogenous in cells; host or cells: L540, HDLM-2, U87-MG, MDA-MB-231, further human glioblastoma and breast cancer lines; details: L540 cells
Description: as §1, §2

STAT3 [2] = target: T3, STAT3; experiment: Western blot in HDLM-2 cells; format: cell-based; parameters: endogenous in cells; host or cells: L540, HDLM-2, U87-MG, MDA-MB-231, further human glioblastoma and breast cancer lines
Description: as §1, §2

STAT3 [3] = target: T3, STAT3; experiment: Western blot of the 46 Table 1 compounds in Hodgkin lymphoma cell lines L540 and HDLM-2; format: cell-based; parameters: endogenous in cells; host or cells: L540, HDLM-2, U87-MG, MDA-MB-231, further human glioblastoma and breast cancer lines; details: for STAT3 inhibitory efficacy, first screening: L540 and HDLM-2
Description: as §1, §2

T3 sequence (P40763 whole entry): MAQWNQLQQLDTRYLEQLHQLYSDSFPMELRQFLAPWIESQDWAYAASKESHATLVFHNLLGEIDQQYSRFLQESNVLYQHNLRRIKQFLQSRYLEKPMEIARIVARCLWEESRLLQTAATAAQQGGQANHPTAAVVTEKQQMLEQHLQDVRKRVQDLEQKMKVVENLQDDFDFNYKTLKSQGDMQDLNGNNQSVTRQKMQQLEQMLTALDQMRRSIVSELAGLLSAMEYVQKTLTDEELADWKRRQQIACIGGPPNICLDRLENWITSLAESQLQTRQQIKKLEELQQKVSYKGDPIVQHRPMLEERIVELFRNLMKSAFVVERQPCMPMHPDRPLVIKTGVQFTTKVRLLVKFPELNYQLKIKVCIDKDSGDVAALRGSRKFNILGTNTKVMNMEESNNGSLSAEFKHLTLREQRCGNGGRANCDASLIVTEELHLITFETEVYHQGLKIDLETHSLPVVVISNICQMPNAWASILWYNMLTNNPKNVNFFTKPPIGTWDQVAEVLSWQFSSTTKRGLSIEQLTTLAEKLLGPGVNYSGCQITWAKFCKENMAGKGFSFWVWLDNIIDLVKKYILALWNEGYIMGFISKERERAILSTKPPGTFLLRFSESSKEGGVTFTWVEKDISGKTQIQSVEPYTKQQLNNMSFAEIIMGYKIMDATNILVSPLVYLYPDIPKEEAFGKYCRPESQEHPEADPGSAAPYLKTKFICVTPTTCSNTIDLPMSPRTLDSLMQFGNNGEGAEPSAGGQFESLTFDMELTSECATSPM
T2 sequence (P07948 whole entry): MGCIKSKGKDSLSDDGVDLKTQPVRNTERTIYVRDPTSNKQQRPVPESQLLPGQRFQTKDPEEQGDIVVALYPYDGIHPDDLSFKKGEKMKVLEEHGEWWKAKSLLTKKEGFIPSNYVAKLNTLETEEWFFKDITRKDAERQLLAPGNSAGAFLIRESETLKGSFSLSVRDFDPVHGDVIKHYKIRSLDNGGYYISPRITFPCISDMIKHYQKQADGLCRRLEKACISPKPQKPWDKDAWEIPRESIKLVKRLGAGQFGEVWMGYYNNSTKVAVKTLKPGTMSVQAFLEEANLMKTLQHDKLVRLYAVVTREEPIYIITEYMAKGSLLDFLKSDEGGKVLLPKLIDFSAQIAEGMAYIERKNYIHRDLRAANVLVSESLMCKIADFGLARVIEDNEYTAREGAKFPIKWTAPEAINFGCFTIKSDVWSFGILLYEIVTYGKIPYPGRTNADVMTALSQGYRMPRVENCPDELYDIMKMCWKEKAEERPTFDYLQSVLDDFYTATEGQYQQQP

Q: `CC(C)(C)c1nc(COc2cccc([N+](=O)[O-])c2)no1` [ODZ17690, 5-tert-butyl-3-(3-nitro-phenoxymethyl)-[1,2,4]oxadiazole] was tested. Which “expression of STAT92E (luciferase assay)” value (STAT92E) did it give?
A: effectively inhibited the expression of STAT92E

Q: What about the “expression of SOCS3” value (SOCS3) of the same compound?
A: effectively inhibited

Q: And the “inhibitory action on JAK3” value (JAK3)?
A: weak inhibitory action

Q: And the “inhibitory action on Src family kinase Lyn” value (Src family kinase Lyn)?
A: did not exert an inhibitory action

Q: What about the “inhibitory action on ERK signaling process” value (ERK signaling process) of the same compound?
A: did not exert an inhibitory action

Q: And the “phosphorylation of tyrosine residue 705 of STAT3” value (STAT3 [1])?
A: effectively inhibited the phosphorylation of tyrosine residue 705 of STAT3

Q: What about the “selective inhibitory action on STAT3 versus STAT1 or STAT5” value (STAT3 [1]) of the same compound?
A: stronger selective inhibitory action on STAT3 than on STAT1 or STAT5

Q: And the “phosphorylation of tyrosine residue 705 of STAT3” value (STAT3 [2])?
A: selectively inhibited phosphorylation of tyrosine residue 705 of STAT3

Q: With `COc1ccccc1C(=O)Nc1ccc(C(=O)N2CCNC2=O)cc1` [compound 41, 2-methoxy-N-{4-[(2-oxo-l-imidazolidinyl)carbonyl]phenyl}benzamide] as the compound, how does the “STAT3 inhibitory efficacy, first screening” value (STAT3 [3]) read?
A: judged to exert superior STAT3 inhibitory efficacy

Q: How did the “STAT3 inhibitory efficacy, first screening” value (STAT3 [3]) turn out when `Cc1[nH]c2ccc(-c3n[nH]c(=S)n3C)cc2c1C` [compound 42, 5-(2,3-dimethyl-lH-indol-5-yl)-4-methyl-2,4-dihydro-3H-l,2,4-triazole-3-thione] was run?
A: judged to exert superior STAT3 inhibitory efficacy

Q: `O=C(Nc1cccnc1)c1cccc(NS(=O)(=O)c2ccccc2)c1` [compound 43, 3-[(phenylsulfonyl)amino]-N-3-pyridinylbenzamide] was tested. Which “STAT3 inhibitory efficacy, first screening” value (STAT3 [3]) did it give?
A: judged to exert superior STAT3 inhibitory efficacy

Q: With `CS(=O)(=O)Nc1cccc(C(=O)Nc2ccccc2C(=O)NCc2cccnc2)c1` [compound 44, 2-({3-[(methylsulfonyl)amino]benzoyl]amino)-N-(3-pyridinylmethyl)benzamide] as the compound, how does the “STAT3 inhibitory efficacy, first screening” value (STAT3 [3]) read?
A: judged to exert superior STAT3 inhibitory efficacy

Q: Which “STAT3 inhibitory efficacy, first screening” value (STAT3 [3]) does the source give for `O=C(NCC1CCCO1)C1CC(=O)N(c2ccc(O)cc2)C1` (stereo not shown) [compound 45, 1-(4-hydroxyphenyl)-5-oxo-N-(tetrahydro-2-furanylmethyl)-3-pyrrolidinecarboxamide] here?
A: judged to exert superior STAT3 inhibitory efficacy

Q: Which results are given for `Cc1ccc(S(=O)(=O)Nc2cccc(C(=O)Nc3cccnc3)c2)cc1` [compound 46, 3-{[(4-methylphenyl)sulfonyl]amino}-N-3-pyridinylbenzamide]?
A: STAT3 inhibitory efficacy, first screening (STAT3 [3]): judged to exert superior STAT3 inhibitory efficacy; STAT3 inhibitory efficacy, secondary screening (STAT3 [3]; L540 and HDLM-2, 50 μM): judged to exert superior STAT3 inhibitory efficacy; phosphorylation of STAT tyrosine 705 (STAT3 [3]; L540 and HDLM-2, various concentrations): significantly inhibited the phosphorylation of STATdml tyrosine 705 in a concentration-dependent manner
